This passage reports EC90 results from patent US20150057246A1, “SILYL-CONTAINING HETEROCYCLIC COMPOUNDS AND METHODS OF USE THEREOF FOR THE TREATMENT OF VIRAL DISEASES” (priority 2012, published 2015).

One experiment relates to HCV 1a replicon. The experiment is described as follows: Cell-based HCV replicon assay (TaqMan), genotype 1a replicon. To be noted: HCV genotype 1a replicon cells, replicon RNA by real time PCR, day 3, EC90 = concentration for ΔCT=3.2 over baseline. As to the method: (§1) Measurement of inhibition by compounds of the present invention was performed using the HCV replicon system. Several different replicons encoding different HCV genotypes or mutations were used. In addition, potency measurements were made using different formats of the replicon assay, including different ways of measurements and different plating formats. See Jan M. Vrolijk et al., A replicons-based bioassay for the measurement of interferons in patients with chronic hepatitis C, 110 J. VIROLOGICAL METHODS 201 (2003); Steven S. Carroll et al., Inhibition of Hepatitis C Virus RNA Replication by 2′-Modified Nucleoside Analogs, 278(14) J. BIOLOGICAL CHEMISTRY 11979 (2003). However, the underlying principles are common to all of these determinations, and are outlined below.
(§2) TaqMan®-Based Assay Protocol:
(§3) Compounds of the present invention were assayed for cell-based anti-HCV activity using the following protocol. Replicon cells were seeded at 5000 cells/well in 96-well collagen I-coated Nunc plates in the presence of the test compound. Various concentrations of test compound, typically in 10 serial 2-fold dilutions, were added to the assay mixture, with the starting concentration ranging from 250 μM to 1 μM. The final concentration of DMSO was 0.5%, fetal bovine serum was 5%, in the assay media. Cells were harvested on day 3 by the addition of 1× cell lysis buffer (Ambion cat #8721). The replicon RNA level was measured using real time PCR (TaqMan® assay). The amplicon was located in 5B. The PCR primers were: 5B.2F, ATGGACAGGCGCCCTGA (SEQ. ID NO. 1); 5B.2R, […] (SEQ. ID NO. 2); the probe sequence was FAM-labeled CACGCCATGCGCTGCGG (SEQ. ID NO. 3). GAPDH RNA was used as endogenous control and was amplified in the same reaction as NS5B (multiplex PCR) using primers and VIC-labeled probe recommended by the manufacturer (PE Applied Biosystem). The real-time […] reactions were run on ABI PRISM 7900HT Sequence Detection System using the following program: 48° C. for 30 minutes, 95° C. for 10 minutes, 40 cycles of 95° C. for 15 sec, 60° C. for 1 minute. The ΔCT values (CT5B-CTGAPDH) were plotted against the concentration of test compound and fitted to the sigmoid dose-response model using XLfit4 (MDL). EC50 was defined as the concentration of inhibitor necessary to achieve ΔCT=1 over the projected baseline; EC90 the concentration necessary to achieve ΔCT=3.2 over the baseline. Alternatively, to quantitate the absolute amount of replicon RNA, a standard curve was established by including serially diluted T7 transcripts of replicon RNA in the Taqman assay. All TaqMan® reagents were from PE Applied Biosystems. Such an assay procedure was described in detail in e.g. Malcolm et al., Antimicrobial Agents and Chemotherapy 50: 1013-1020 (2006).
(§4) HCV replicon EC50 assay data for various replicons and mutants was calculated for selected compounds of the present invention using this method and is provided in the tables above herein.

The next experiment concerns HCV 1a Y93H replicon. The experiment is described as follows: Cell-based HCV replicon assay (TaqMan), 1a Y93H mutant replicon. The note with it: EC90 = concentration for ΔCT=3.2 over baseline. As to the method:
as §1, §2, §3, §4
(In antiviral work, replicon cells carry a viral genome segment that copies itself.)

For a further experiment, the system named is HCV 2b replicon. The experiment is described as follows: Cell-based HCV replicon assay (TaqMan), genotype 2b replicon. To be noted: EC90 = concentration for ΔCT=3.2 over baseline. As to the method: as §1, §2, §3, §4
[1] abbreviates: Hepatitis C virus, 72 h, read-out: 1a Y93H EC90, HCV 1a Y93H mutant replicon cells, replicon RNA by real time PCR, day 3.
Where [2] appears, read: Hepatitis C virus, 72 h, read-out: 2b EC90, HCV genotype 2b replicon cells, replicon RNA by real time PCR, day 3.
[3] abbreviates: read-out: 1a Y93H EC90, HCV 1a Y93H mutant replicon cells, replicon RNA by real time PCR, day 3.

The structures appear in SMILES notation. Where two headings read alike, the source gives them in different places. A value given as a limit tells only on which side of the number the result lay.

As usually defined, the EC90 is the concentration needed for an effect of 90%. As for `COC(=O)N[C@@H](C(=O)N1C[Si](C)(C)C[C@H]1c1ncc(-c2ccc(-c3ccc4c(ccc5nc([C@@H]6CCCN6C(=O)[C@H](NC(=O)OC)c6ccccc6)[nH]c54)c3)cc2)[nH]1)c1ccccc1` [Compound 53], the EC90 in the experiment on HCV 1a replicon (Hepatitis C virus, 72 h) is 7.27 nM; in the experiment on HCV 1a Y93H replicon (setting [1]), over 1000 nM; in the experiment with HCV 2b replicon (setting [2]), over 1000 nM.
In the case of `CC(C)(C)OC(=O)N1C[Si](C)(C)C[C@H]1c1nc2ccc3cc(-c4ccc(-c5[nH]c([C@@H]6C[C@H]7C[C@H]7N6C(=O)OC(C)(C)C)nc5Cl)cc4)ccc3c2[nH]1` [Compound 100], the EC90 with HCV 1a replicon (Hepatitis C virus, 72 h) is over 1000 nM; in the experiment on HCV 1a Y93H replicon (setting [1]), over 1000 nM; with HCV 2b replicon (setting [2]) it was over 1000 nM.
`COC(=O)N[C@H](C(=O)N1C[Si](C)(C)C[C@H]1c1nc2ccc3cc(-c4ccc(-c5cnc([C@@H]6CCCN6C(=O)[C@@H](NC(=O)OC)C6CCCC6)[nH]5)cc4)ccc3c2[nH]1)C(C)C` [Compound 85]: the EC90 with HCV 1a replicon (Hepatitis C virus, 72 h) is 0.52 nM; in the experiment on HCV 1a Y93H replicon (setting [1]) it was over 1000 nM; in the experiment on HCV 2b replicon (setting [2]) it was 330 nM.
On the same counts, the results for `CC[C@H](C)[C@H](NC(=O)OC)C(=O)N1C[Si](C)(C)C[C@H]1c1nc2ccc3cc(-c4ccc(-c5cnc([C@@H]6CCCN6C(=O)[C@@H](NC(=O)OC)C(C)C)[nH]5)cc4)ccc3c2[nH]1` [Compound 59] are 0.61 nM, over 1000 nM and 245 nM.
On the same counts, the results for `CCC(C)[C@H](NC(=O)OC)C(=O)N1CCC[C@H]1c1ncc(-c2ccc(-c3ccc4c(ccc5nc([C@@H]6C[Si](C)(C)CN6C(=O)[C@@H](NC(=O)OC)C(C)CC)[nH]c54)c3)cc2)[nH]1` (stereo partly drawn) [Compound 20] are 0.063 nM, over 100 nM and over 100 nM.
On to `COC(=O)N[C@H](C(=O)N1C[Si](C)(C)C[C@H]1c1nc2ccc3cc(-c4ccc(-c5cnc([C@@H]6CCCN6C(=O)[C@@H](NC(=O)OC)[C@@H](C)O)[nH]5)cc4)ccc3c2[nH]1)C(C)C` [Compound 87], for which the EC90 is 0.67 nM with HCV 1a replicon (Hepatitis C virus, 72 h); over 1000 nM with HCV 1a Y93H replicon (setting [1]); 81.7 nM with HCV 2b replicon (setting [2]).
The corresponding values for `COC(=O)N1CCC[C@H]1C(=O)N1C[Si](C)(C)C[C@H]1c1ncc(-c2ccc(-c3ccc4c(ccc5nc([C@@H]6CCCN6C(=O)[C@@H]6CCCN6C(=O)OC)[nH]c54)c3)cc2)[nH]1` [Compound 54] are over 1000 nM, over 1000 nM and over 1000 nM.
The corresponding values for `COC(=O)N[C@H](C(=O)N1C[Si](C)(C)C[C@H]1c1nc2ccc3cc(-c4ccc(-c5cnc([C@@H]6CCCN6C(=O)[C@@H](NC(=O)OC)C(C)(C)OC)[nH]5)cc4)ccc3c2[nH]1)C(C)C` [Compound 86] are 0.77 nM, over 1000 nM and 389 nM.
As for `CC[C@H](C)[C@H](NC(=O)OC)C(=O)N1C[Si](C)(C)C[C@H]1c1ncc(-c2ccc(-c3ccc4c(ccc5nc([C@@H]6CCCN6C(=O)[C@@H](NC(=O)OC)[C@@H](C)CC)[nH]c54)c3)cc2)[nH]1` [Compound 47], the EC90 was determined as 0.59 nM in the experiment with HCV 1a replicon; 953 nM in the experiment with HCV 1a Y93H replicon (setting [3]); 578 nM in the experiment on HCV 2b replicon (read-out: 2b EC90, HCV genotype 2b replicon cells, replicon RNA by real time PCR, day 3).
Consider `CCN(CC)[C@@H](C(=O)N1CCC[C@H]1c1ncc(-c2ccc(-c3ccc4c(ccc5nc([C@@H]6C[Si](C)(C)CN6C(=O)[C@@H](NC(=O)OC)C(C)C)[nH]c54)c3)cc2)[nH]1)c1ccccc1` [Compound 88], for which the EC90 with HCV 1a replicon (Hepatitis C virus, 72 h) stood at 0.26 nM; with HCV 1a Y93H replicon (setting [1]), 500 nM; with HCV 2b replicon (setting [2]) it was 10.9 nM.
On the same counts, the results for `COC(=O)N[C@H](C(=O)N1CCC[C@H]1c1ncc(-c2ccc(-c3ccc4c(ccc5nc([C@@H]6C[Si](C)(C)CN6C(=O)[C@@H](NC(=O)OC)[C@@H](C)OC)[nH]c54)c3)cc2)[nH]1)C(C)C` [Compound 60] are 0.21 nM, over 1000 nM and 52.8 nM.
On the same counts, the results for `COC(=O)N[C@H](C(=O)N1C[Si](C)(C)C[C@H]1c1ncc(-c2ccc(-c3ccc4c(ccc5nc([C@@H]6CCCN6C(=O)[C@@H](NC(=O)OC)C6CC6)[nH]c54)c3)cc2)[nH]1)C1CC1` [Compound 51] are 0.51 nM, over 1000 nM and over 1000 nM.
As to `COC(=O)N[C@H](C(=O)N1C[Si](C)(C)C[C@H]1c1ncc(-c2ccc(-c3ccc4c(ccc5nc([C@@H]6CCCN6C(=O)[C@@H](NC(=O)OC)[C@@H](C)OC)[nH]c54)c3)cc2)[nH]1)[C@@H](C)OC` [Compound 36], the 90% effect concentration (EC90) is 0.152 nM in the experiment with HCV 1a replicon (Hepatitis C virus, 72 h); 276 nM in the experiment on HCV 1a Y93H replicon (setting [1]); over 1000 nM in the experiment with HCV 2b replicon (setting [2]).
The corresponding values for `COC(=O)N[C@@H](CC(C)(C)C)C(=O)N1CCC[C@H]1c1ncc(-c2ccc(-c3ccc4c(ccc5nc([C@@H]6C[Si](C)(C)CN6C(=O)[C@@H](NC(=O)OC)C(C)C)[nH]c54)c3)cc2)[nH]1` [Compound 84] are 0.92 nM, over 1000 nM and 413 nM.
As for `CCN(CC)[C@@H](C(=O)N1CCC[C@H]1c1ncc(-c2ccc(-c3ccc4c(ccc5nc([C@@H]6C[Si](C)(C)CN6C(=O)[C@@H](c6ccccc6)N(CC)CC)[nH]c54)c3)cc2)[nH]1)c1ccccc1` [Compound 21], the EC90 with HCV 1a replicon (Hepatitis C virus, 72 h) is 0.25 nM; in the experiment on HCV 1a Y93H replicon (setting [1]), over 100 nM; in the experiment with HCV 2b replicon (setting [2]) it was 0.39 nM.
The corresponding values for `COC(=O)N[C@@H](Cc1cccc(O)c1)C(=O)N1C[Si](C)(C)C[C@H]1c1ncc(-c2ccc(-c3ccc4c(ccc5nc([C@@H]6CCCN6C(=O)[C@H](Cc6cccc(O)c6)NC(=O)OC)[nH]c54)c3)cc2)[nH]1` [Compound 37] are 2.52 nM, over 1000 nM and over 1000 nM.
Consider `COC(=O)N[C@H](C(=O)N1C[Si](C)(C)C[C@H]1c1ncc(-c2ccc(-c3ccc4c(ccc5nc([C@@H]6CCCN6C(=O)[C@@H](NC(=O)OC)C6CCCC6)[nH]c54)c3)cc2)[nH]1)C1CCCC1` [Compound 35], for which the EC90 with HCV 1a replicon (Hepatitis C virus, 72 h) is 0.5 nM; with HCV 1a Y93H replicon (setting [1]), 555 nM; with HCV 2b replicon (setting [2]) it was 566 nM.
For the compound `CC(C)(C)OC(=O)N1C[Si](C)(C)C[C@H]1c1nc2ccc3cc(-c4ccc(-c5cnc([C@@H]6C[C@H]7C[C@H]7N6C(=O)OC(C)(C)C)[nH]5)cc4)ccc3c2[nH]1` [Compound 104], the EC90 in the experiment with HCV 1a replicon, in the experiment with HCV 1a Y93H replicon (setting [3]) and in the experiment with HCV 2b replicon (setting [2]) was over 1000 nM in each case.
Regarding `CC[C@H](C)[C@H](NC(=O)OC)C(=O)N1CCC[C@H]1c1ncc(-c2ccc(-c3ccc4c(ccc5nc([C@@H]6C[Si](C)(C)CN6C(=O)[C@@H](NC(=O)OC)C(C)C)[nH]c54)c3)cc2)[nH]1` [Compound 81], the EC90 in the experiment with HCV 1a replicon (Hepatitis C virus, 72 h) was found to be 0.3 nM; with HCV 1a Y93H replicon (setting [1]), 994 nM; in the experiment on HCV 2b replicon (setting [2]), 561 nM.
On the same counts, the results for `COC(=O)N1CCOC[C@H]1C(=O)N1C[Si](C)(C)C[C@H]1c1ncc(-c2ccc(-c3ccc4c(ccc5nc([C@@H]6CCCN6C(=O)[C@@H]6COCCN6C(=O)OC)[nH]c54)c3)cc2)[nH]1` [Compound 39] are 149 nM, over 1000 nM and over 1000 nM.
On the same counts, the results for `COC(=O)N[C@@H](CC1CC1)C(=O)N1CCC[C@H]1c1ncc(-c2ccc(-c3ccc4c(ccc5nc([C@@H]6C[Si](C)(C)CN6C(=O)[C@@H](NC(=O)OC)C(C)C)[nH]c54)c3)cc2)[nH]1` [Compound 83] are 0.46 nM, 528 nM and 406 nM.
Turning to `COC(=O)N[C@@H](Cn1ncnn1)C(=O)N1C[Si](C)(C)C[C@H]1c1nc2ccc3cc(-c4ccc(-c5cnc([C@@H]6CCCN6C(=O)[C@@H](NC(=O)OC)C(C)C)[nH]5)cc4)ccc3c2[nH]1` [Compound 62], the EC90 was 0.22 nM in the experiment with HCV 1a replicon (Hepatitis C virus, 72 h); over 1000 nM in the experiment with HCV 1a Y93H replicon (setting [1]); 91 nM with HCV 2b replicon (setting [2]).
